Measurements from patent publication US7138411B2, “Substituted benzopyran derivatives for the treatment of inflammation” (G.D. Searle & Co., priority 1997, dated 2006).

Key:
carrageenan foot edema = assay: Rat carrageenan foot pad edema test; format: in vivo, Male Sprague-Dawley rats; set-up: inhibition in vivo: dose or concentration left out as unconfirmed; settings: po, 3 h, dosed orally, foot volume three hours after carrageenan, read-out: RAT PAW EDEMA % Inhibition; for inhibition in vivo at 10 mg/kg: @ 10 mpk (values marked *)
Procedure: Rat Carrageenan Foot Pad Edema Test
Male Sprague-Dawley rats were selected in each group so that the average body weight was as close as possible. Rats were fasted with free access to water for over sixteen hours prior to the test. The rats were dosed orally (1 mL) with compounds suspended in vehicle containing 0.5% methylcellulose and 0.025% surfactant, or with vehicle alone. One hour later a subplantar injection of 0.1 mL of 1% solution of carrageenan/sterile 0.9% saline was administered and the volume of the injected foot was measured with a displacement plethysmometer connected to a pressure transducer with a digital indicator. Three hours after the injection of the carrageenan, the volume of the foot was again measured. The average foot swelling in a group of drug-treated animals was compared with that of a group of placebo-treated animals and the percentage inhibition of edema was determined (Otterness and Bliven, Laboratory Models for Testing NSAIDs, in Non-steroidal Anti-Inflammatory Drugs, (J. Lombardino, ed. 1985)).

Analgesia (Table I) = format: in vivo; set-up: inhibition in vivo: dose or concentration left out as unconfirmed; settings: read-out: ANALGESIA % Inhibition; for inhibition in vivo at 10 mg/kg: @ 10 mpk (values marked *)
COX-2 [1] = biological target: T1, COX-2 (UniProt P35354); assay: Fast assay for COX-2 activity (PGE2 ELISA); format: biochemical, human or murine; settings: fast assay: 10 min pre-incubation at 25° C., reaction stopped after two minutes, pH 7.5
T1 sequence (P35354 1-604): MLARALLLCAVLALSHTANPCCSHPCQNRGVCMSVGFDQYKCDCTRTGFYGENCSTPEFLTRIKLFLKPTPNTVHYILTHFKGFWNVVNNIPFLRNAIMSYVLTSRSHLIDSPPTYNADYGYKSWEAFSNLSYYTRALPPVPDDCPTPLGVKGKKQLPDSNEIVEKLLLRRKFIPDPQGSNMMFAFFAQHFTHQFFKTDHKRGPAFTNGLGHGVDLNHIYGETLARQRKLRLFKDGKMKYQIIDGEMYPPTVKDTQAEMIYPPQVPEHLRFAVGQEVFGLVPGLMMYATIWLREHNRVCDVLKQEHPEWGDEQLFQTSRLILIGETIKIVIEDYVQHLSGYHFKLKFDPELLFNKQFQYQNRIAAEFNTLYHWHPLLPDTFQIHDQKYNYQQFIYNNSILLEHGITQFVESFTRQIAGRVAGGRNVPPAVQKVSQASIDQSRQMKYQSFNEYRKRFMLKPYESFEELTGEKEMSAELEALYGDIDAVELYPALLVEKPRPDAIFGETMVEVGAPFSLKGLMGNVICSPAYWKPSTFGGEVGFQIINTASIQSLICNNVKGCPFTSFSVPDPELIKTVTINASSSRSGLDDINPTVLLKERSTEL

COX-1 = COX-1 (UniProt P23219); assay: Assay for COX-1 activity (PGE2 ELISA); settings: read-out: COX-1 IC50; 10–20 minutes pre-incubation, reaction stopped after ten minutes, pH 8.0
COX-2 [2] = biological target: T1, COX-2; assay: Assay for COX-2 activity (PGE2 ELISA); settings: read-out: COX-2 IC50; 10–20 minutes pre-incubation, reaction stopped after ten minutes, pH 8.0

| SMILES | melting point | IC50 (COX-2 [1]) | IC50 (COX-1) | IC50 (COX-2 [2]) | inhibition in vivo (carrageenan foot edema) | inhibition in vivo (Analgesia (Table I)) | inhibition in vivo at 10 mg/kg (carrageenan foot edema) | inhibition in vivo at 10 mg/kg (Analgesia (Table I)) |
| --- | --- | --- | --- | --- | --- | --- | --- | --- |
| CC(C)(C)c1cc2c(cc1Cl)C=C(C(=O)O)C(C(F)(F)F)O2 (stereo not drawn) [Example 8, 6-Chloro-7-(1,1-dimethylethyl)-2-trifluoromethyl-2H-1-benzopyran-3-carboxylic acid] |  |  |  |  | 43% | 36% |  |  |
| O=C(O)C1=Cc2cc(Cl)cc(Cl)c2OC1C(F)(F)F (stereo not drawn) [Example 32, 6,8-Dichloro-2-trifluoromethyl-2H-1-benzopyran-3-carboxylic acid] |  |  |  |  |  |  | 59% | 73% |
| O=C(O)C1=Cc2cc(C#Cc3ccccc3)ccc2NC1C(F)(F)F (stereo not drawn) [Example 211, 1,2-Dihydro-6-(phenylethynyl)-2-(trifluoromethyl)-3-quinolinecarboxylic acid] | 218 to 219 °C | 1.9 µM | 3.8 µM | 2.4 µM |  |  |  |  |
| O=C(O)C1=Cc2cc(S(=O)(=O)NCc3ccccc3)ccc2OC1C(F)(F)F (stereo not drawn) [Example 49, 6-[[(Phenylmethyl)amino]sulfonyl]-2-trifluoromethyl-2H-1-benzopyran-3-carboxylic acid] | 223.3 to 224.4 °C | 24 µM | > 100 µM | 31 µM |  |  |  |  |
| O=C(O)C1=Cc2cc(Cl)ccc2N[C@@H]1C(F)(F)F [Example 172, (S)-6-chloro-1,2-dihydro-2-(trifluoromethyl)-3-quinolinecarboxylic acid] |  |  |  |  | 57% | 67% |  |  |
| Cc1cc(Br)c2c(c1)C=C(C(=O)O)C(C(F)(F)F)O2 (stereo not drawn) [Example 44, 8-Bromo-6-methyl-2-trifluoromethyl-2H-1-benzopyran-3-carboxylic acid] | 237 to 238 °C | 0.3 µM | > 100 µM | 21 µM |  |  |  |  |
| O=C(O)C1=Cc2cc(C(F)(F)C(F)(F)F)ccc2OC1C(F)(F)F (stereo not drawn) [Example 88, 6-(Pentafluoroethyl)-2-(trifluoromethyl)-2H-1-benzopyran-3-carboxylic acid] | 162.3 to 164.7 °C | < 0.1 µM | 6.4 µM | < 0.1 µM |  |  |  |  |
| O=C(O)C1=Cc2cc(Cl)cc(Cl)c2NC1C(F)(F)F (stereo not drawn) [Example 158, 6,8-Dichloro-1,2-dihydro-2-(trifluoromethyl)-3-quinolinecarboxylic acid] |  |  |  |  |  |  | 45% | 55% |
| O=C(O)C1=Cc2cc(Cl)ccc2NC1C(F)(F)F (stereo not drawn) [Example 157, 6-Chloro-1,2-dihydro-2-(trifluoromethyl)-3-quinolinecarboxylic acid] |  |  |  |  |  |  | 44% | 36% |
| O=C(O)C1=Cc2c(F)ccc(Br)c2OC1C(F)(F)F (stereo not drawn) [Example 45, 8-Bromo-5-fluoro-2-trifluoromethyl-2H-1-benzopyran-3-carboxylic acid] | 221.7 to 223.3 °C | 0.2 µM | > 100 µM | 46 µM |  |  |  |  |
| O=C(O)C1=Cc2cc(Br)ccc2NC1C(F)(F)F (stereo not drawn) [Example 161, 6-Bromo-1,2-dihydro-2-(trifluoromethyl)-3-quinolinecarboxylic acid] |  |  |  |  | 53% | 56% |  |  |
| O=C(O)C1=Cc2cc(Cl)c(Cl)cc2SC1C(F)(F)F (stereo not drawn) [Example 154, 6,7-Dichloro-2-(trifluoromethyl)-2H-1-benzothiopyran-3-carboxylic acid] | 262.5 to 263.5 °C | 0.5 µM | 37 µM | < 0.1 µM |  |  |  |  |
| C#Cc1ccc2c(c1)C=C(C(=O)O)C(C(F)(F)F)N2 (stereo not drawn) [Example 210, 1,2-Dihydro-6-ethynyl-2-(trifluoromethyl)-3-quinolinecarboxylic acid] | 259 to 268 °C | 1.7 µM | > 100 µM | 10 µM |  |  |  |  |

The next lines start with results.

| melting point | IC50 (COX-2 [1]) | IC50 (COX-1) | IC50 (COX-2 [2]) | SMILES | inhibition in vivo (carrageenan foot edema) | inhibition in vivo (Analgesia (Table I)) | inhibition in vivo at 10 mg/kg (carrageenan foot edema) | inhibition in vivo at 10 mg/kg (Analgesia (Table I)) |
| --- | --- | --- | --- | --- | --- | --- | --- | --- |
| 168 to 170 °C |  |  |  | O=C(O)C1=Cc2cc(I)ccc2OC1C(F)(F)F (stereo not drawn) [Example 24, 6-Iodo-2-trifluoromethyl-2H-1-benzopyran-3-carboxylic acid] | 29% | 25% |  |  |
| 198 to 200 °C |  |  |  | C#Cc1ccc2c(c1)C=C(C(=O)O)C(C(F)(F)F)O2 (stereo not drawn) [Example 139, 6-(Ethynyl)-2-(trifluoromethyl)-2H-1-benzopyran-3-carboxylic acid] | 42% | 41% |  |  |
| 174.1 to 176.1 °C | < 0.1 µM | 30.3 µM | 9.5 µM | O=C(O)C1=Cc2cc(Cl)c(Oc3cccc(Cl)c3)cc2OC1C(F)(F)F (stereo not drawn) [Example 196, 6-Chloro-7-(3-chlorophenoxy)-2-(trifluoromethyl)-2H-1-benzopyran-3-carboxylic acid] |  |  |  |  |
| 227.8 to 228.9 °C | > 0.1 µM | 44 µM | 134 µM | O=C(O)C1=Cc2cc(Cl)cc(Br)c2OC1C(F)(F)F (stereo not drawn) [Example 15, 8-Bromo-6-chloro-2-trifluoromethyl-2H-1-benzopyran-3-carboxylic acid] |  |  |  |  |
| 174.4 to 176 °C | 0.2 µM | > 100 µM | > 100 µM | O=C(O)C1=Cc2cc(Cl)c(OCC(F)(F)F)cc2OC1C(F)(F)F (stereo not drawn) [Example 209] |  |  |  |  |
| 213.4 to 216.2 °C | < 0.1 µM | 28.5 µM | < 0.1 µM | O=C(O)C1=Cc2cc(Cl)c(Oc3cccnc3Cl)cc2OC1C(F)(F)F (stereo not drawn) [Example 200, 6-Chloro-7-[(2-chloro-3-pyridinyl)oxy]-2-(trifluoromethyl)-2H-1-benzopyran-3-carboxylic acid] |  |  |  |  |
| 212.5 to 215.7 °C | < 0.1 µM | > 100 µM | < 0.1 µM | N#Cc1ccc(Oc2cc3c(cc2Cl)C=C(C(=O)O)C(C(F)(F)F)O3)cc1 (stereo not drawn) [Example 185, 6-Chloro-7-(4-cyanophenoxy)-2-(trifluoromethyl)-2H-1-benzopyran-3-carboxylic acid] |  |  |  |  |
| 213.8 to 217.4 °C | 1.2 µM | > 100 µM | > 100 µM | O=C(O)C1=Cc2cc(Cl)c([S+]([O-])c3ccc(Cl)cc3)cc2OC1C(F)(F)F (stereo not drawn) [Example 193, 6-Chloro-7-[(4-chlorophenyl)sulfinyl]-2-(trifluoromethyl)-2H-1-benzopyran-3-carboxylic acid] |  |  |  |  |
| 185.3 to 187.8 °C | < 0.1 µM | 3.8 µM | 16 µM | O=C(O)C1=Cc2cc(Cl)c(-c3ccccc3)cc2OC1C(F)(F)F (stereo not drawn) [Example 30, 6-Chloro-7-phenyl-2-trifluoromethyl-2H-1-benzopyran-3-carboxylic acid] |  |  |  |  |
| 153.5 to 154.4 °C | < 0.1 µM | 16 µM | < 0.1 µM | O=C(O)C1=Cc2cc(Oc3ccc(C(F)(F)F)cc3)ccc2OC1C(F)(F)F (stereo not drawn) [Example 101, 2-(Trifluoromethyl)-6-[4-(trifluoromethyl)phenoxy)-2H-1-benzopyran-3-carboxylic acid] |  |  |  |  |
| 208.3 to 212.4 °C | 12 µM | > 100 µM | 29 µM | CS(=O)(=O)c1ccc2c(c1)C=C(C(=O)O)C(C(F)(F)F)O2 (stereo not drawn) [Example 56, 6-Methylsulfonyl-2-trifluoromethyl-2H-1-benzopyran-3-carboxylic acid] |  |  |  |  |
| 271.7 to 274.4 °C | < 0.1 µM | 2.6 µM | < 0.1 µM | O=C(O)C1=Cc2cc(Cl)c(Sc3ccccc3)cc2OC1C(F)(F)F (stereo not drawn) [Example 195, 6-Chloro-7-(phenylthio)-2-(trifluoromethyl)-2H-1-benzopyran-3-carboxylic acid] |  |  |  |  |
| 215 to 216 °C | 0.3 µM | 11.1 µM | < 0.1 µM | O=C(O)C1=Cc2cc(-c3ccc(Br)cc3)ccc2OC1C(F)(F)F (stereo not drawn) [Example 138, 6-(4-Bromophenyl)-2-(trifluoromethyl)-2H-1-benzopyran-3-carboxylic acid] |  |  |  |  |
